Source: patent US10710978B2, “STK4 inhibitors for treatment of hematologic malignancies” (Dana-Farber Cancer Institute, Inc., priority 2015, dated 2020)
Read-outs that look alike come from different tables or passages of the source.

Tests used:
Assay in all cases: KiNativ assay
Format in all cases: binding
p70S6K = p70S6K (Homo sapiens (Human), UniProt P23443); details: H929 live cell
Method: (§1) Biochemical IC50s of the compounds of the present disclosure against various kinases were measured in a KiNativ assay. Compounds were screened in duplicate at 10 μM in H929 live cell. IC50 was measured via Mass spectroscopy (MS).

PIP4K2C = PIP4K2C (Homo sapiens (Human), UniProt Q8TBX8); details: H929 live cell
Method: as §1

JAK1 domain2 = JAK1 domain2 (Homo sapiens (Human), UniProt P23458); details: H929 live cell
Method: as §1

Erk1 = Erk1 (Homo sapiens (Human), UniProt P27361); details: H929 live cell
Method: as §1

[1] = tested on: RSK1 domain1, RSK2 domain1, RSK3 domain1; details: H929 live cell
Method: as §1

NuaK1 = NuaK1 (Homo sapiens (Human), UniProt O60285); details: H929 live cell
Method: as §1

RSKL1 = RSKL1 (Homo sapiens (Human), UniProt Q96S38); details: H929 live cell
Method: as §1

KHS1 = KHS1 (Homo sapiens (Human), UniProt Q9Y4K4); details: H929 live cell
Method: as §1

CaMKK2 = CaMKK2 (Homo sapiens (Human), UniProt Q96RR4); details: H929 live cell
Method: as §1

AurB = AurB (Homo sapiens (Human), UniProt Q96GD4); details: H929 live cell
Method: as §1

MARK2 = MARK2 (Homo sapiens (Human), UniProt Q7KZI7); details: H929 live cell
Method: as §1

NDR1 = NDR1 (Homo sapiens (Human), UniProt Q15208); details: H929 live cell
Method: as §1

SGK3 = SGK3 (Homo sapiens (Human), UniProt Q96BR1); details: H929 live cell
Method: as §1

TYK2 domain2 = TYK2 domain2 (Homo sapiens (Human), UniProt P29597); details: H929 live cell
Method: as §1

PI4KB = PI4KB (Homo sapiens (Human), UniProt Q9UBF8); details: H929 live cell
Method: as §1

KSR1, KSR2 = details: H929 live cell
Method: as §1

p70S6Kb = p70S6Kb (Homo sapiens (Human), UniProt Q9UBS0); details: H929 live cell
Method: as §1

MST2 = MST2 (Homo sapiens (Human), UniProt Q13188); details: H929 live cell
Method: as §1

CHK2 = CHK2 (Homo sapiens (Human), UniProt O96017); details: H929 live cell
Method: as §1

GSK3A = GSK3A (Homo sapiens (Human), UniProt P49840); details: H929 live cell
Method: as §1

CDK7 = CDK7 (Homo sapiens (Human), UniProt P50613); details: H929 live cell
Method: as §1

PITSLRE = details: H929 live cell
Method: as §1

PRP4 = PRP4 (Homo sapiens (Human), UniProt Q13523); details: H929 live cell
Method: as §1

RSK2 domain2 = RSK2 domain2 (Homo sapiens (Human), UniProt P51812); details: H929 live cell
Method: as §1

FYN, SRC, YES = details: H929 live cell
Method: as §1

TAO1, TAO3 = details: H929 live cell
Method: as §1

FRAP = FRAP (Homo sapiens (Human), UniProt P42345); details: H929 live cell
Method: as §1

AurA, AurB, AurC = details: H929 live cell
Method: as §1

GCK = GCK (Homo sapiens (Human), UniProt Q12851); details: H929 live cell
Method: as §1

p38a = p38a (Homo sapiens (Human), UniProt Q16539); details: H929 live cell, read-out: % inhibition (range)
Method: as §1

ATR = ATR (Homo sapiens (Human), UniProt Q13535); details: H929 live cell
Method: as §1

PKCi = PKCi (Homo sapiens (Human), UniProt P41743); details: H929 live cell
Method: as §1

TLK1 = TLK1 (Homo sapiens (Human), UniProt Q9UKI8); details: H929 live cell
Method: as §1

LOK = LOK (Homo sapiens (Human), UniProt O94804); details: H929 live cell
Method: as §1

NuaK1, sequence (O60285 whole entry): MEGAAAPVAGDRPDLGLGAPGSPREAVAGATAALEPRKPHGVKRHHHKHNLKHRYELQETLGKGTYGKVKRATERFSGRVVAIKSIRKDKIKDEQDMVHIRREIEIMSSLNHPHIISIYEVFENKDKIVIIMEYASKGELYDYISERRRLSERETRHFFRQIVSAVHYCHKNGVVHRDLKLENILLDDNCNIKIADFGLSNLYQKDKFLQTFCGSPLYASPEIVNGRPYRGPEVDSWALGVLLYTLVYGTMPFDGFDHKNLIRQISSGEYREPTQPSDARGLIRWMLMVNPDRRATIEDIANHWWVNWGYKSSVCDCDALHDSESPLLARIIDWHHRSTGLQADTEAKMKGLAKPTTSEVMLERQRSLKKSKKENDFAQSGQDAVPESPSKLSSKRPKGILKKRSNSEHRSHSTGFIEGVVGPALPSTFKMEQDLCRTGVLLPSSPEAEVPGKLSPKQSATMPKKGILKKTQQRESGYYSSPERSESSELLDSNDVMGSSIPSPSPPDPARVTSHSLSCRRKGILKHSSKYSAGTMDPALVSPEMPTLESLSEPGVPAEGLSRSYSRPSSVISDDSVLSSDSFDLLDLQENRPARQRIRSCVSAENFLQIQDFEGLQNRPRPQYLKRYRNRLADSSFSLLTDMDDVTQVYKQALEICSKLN
MST2, sequence (Q13188 whole entry): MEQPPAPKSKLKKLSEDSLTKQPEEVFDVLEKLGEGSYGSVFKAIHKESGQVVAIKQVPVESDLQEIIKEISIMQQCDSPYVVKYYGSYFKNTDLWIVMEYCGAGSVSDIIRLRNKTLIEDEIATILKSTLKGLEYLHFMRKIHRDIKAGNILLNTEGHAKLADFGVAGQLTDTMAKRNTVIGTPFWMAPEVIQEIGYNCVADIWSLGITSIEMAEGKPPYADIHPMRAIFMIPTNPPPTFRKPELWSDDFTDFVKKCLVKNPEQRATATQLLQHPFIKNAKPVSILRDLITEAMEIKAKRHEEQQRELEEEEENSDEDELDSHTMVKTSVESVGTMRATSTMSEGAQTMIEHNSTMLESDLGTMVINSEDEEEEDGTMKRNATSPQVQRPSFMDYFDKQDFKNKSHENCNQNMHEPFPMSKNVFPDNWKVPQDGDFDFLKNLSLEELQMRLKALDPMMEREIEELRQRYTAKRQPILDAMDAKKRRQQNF
PIP4K2C, sequence (Q8TBX8 whole entry): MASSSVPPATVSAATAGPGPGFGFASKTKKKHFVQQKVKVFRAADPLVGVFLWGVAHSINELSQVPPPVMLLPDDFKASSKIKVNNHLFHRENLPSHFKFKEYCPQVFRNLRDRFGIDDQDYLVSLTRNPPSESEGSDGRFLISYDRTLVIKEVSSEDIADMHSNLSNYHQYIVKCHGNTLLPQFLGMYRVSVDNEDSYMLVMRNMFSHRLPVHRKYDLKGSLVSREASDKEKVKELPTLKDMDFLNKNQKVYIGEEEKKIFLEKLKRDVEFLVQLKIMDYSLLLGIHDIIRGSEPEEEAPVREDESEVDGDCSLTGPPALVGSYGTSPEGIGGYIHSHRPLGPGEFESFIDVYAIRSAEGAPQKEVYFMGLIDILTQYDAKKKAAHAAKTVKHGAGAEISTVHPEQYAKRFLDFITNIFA
CDK7, sequence (P50613 whole entry): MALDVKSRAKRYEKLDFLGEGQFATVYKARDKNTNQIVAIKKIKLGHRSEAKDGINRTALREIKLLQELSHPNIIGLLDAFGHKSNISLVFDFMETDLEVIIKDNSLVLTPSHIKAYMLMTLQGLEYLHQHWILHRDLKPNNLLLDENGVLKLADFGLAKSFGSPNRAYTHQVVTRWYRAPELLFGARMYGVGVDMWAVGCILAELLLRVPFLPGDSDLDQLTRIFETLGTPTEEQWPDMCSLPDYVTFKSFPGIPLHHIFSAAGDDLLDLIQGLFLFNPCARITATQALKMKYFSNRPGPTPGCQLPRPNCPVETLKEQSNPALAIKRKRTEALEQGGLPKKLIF
CDK7, sequence (P51946 whole entry partner): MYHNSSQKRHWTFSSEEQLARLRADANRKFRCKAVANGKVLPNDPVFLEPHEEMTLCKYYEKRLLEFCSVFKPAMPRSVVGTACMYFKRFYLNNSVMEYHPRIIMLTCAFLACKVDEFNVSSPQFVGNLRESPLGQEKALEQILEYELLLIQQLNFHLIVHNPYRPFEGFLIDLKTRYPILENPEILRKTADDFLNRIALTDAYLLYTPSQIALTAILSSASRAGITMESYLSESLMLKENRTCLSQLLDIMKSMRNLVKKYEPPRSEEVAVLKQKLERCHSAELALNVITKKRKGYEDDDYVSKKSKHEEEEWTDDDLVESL
CDK7, sequence (P51948 whole entry partner): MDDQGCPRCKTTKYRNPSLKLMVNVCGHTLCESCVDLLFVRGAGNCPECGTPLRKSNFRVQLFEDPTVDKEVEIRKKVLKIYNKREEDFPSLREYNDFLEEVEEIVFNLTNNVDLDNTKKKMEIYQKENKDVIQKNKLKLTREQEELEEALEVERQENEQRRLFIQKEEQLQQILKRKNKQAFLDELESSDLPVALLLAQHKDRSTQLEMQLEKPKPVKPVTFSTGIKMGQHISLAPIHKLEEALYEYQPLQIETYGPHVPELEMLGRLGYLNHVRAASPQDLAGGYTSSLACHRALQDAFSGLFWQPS
PKCi, sequence (P41743 whole entry): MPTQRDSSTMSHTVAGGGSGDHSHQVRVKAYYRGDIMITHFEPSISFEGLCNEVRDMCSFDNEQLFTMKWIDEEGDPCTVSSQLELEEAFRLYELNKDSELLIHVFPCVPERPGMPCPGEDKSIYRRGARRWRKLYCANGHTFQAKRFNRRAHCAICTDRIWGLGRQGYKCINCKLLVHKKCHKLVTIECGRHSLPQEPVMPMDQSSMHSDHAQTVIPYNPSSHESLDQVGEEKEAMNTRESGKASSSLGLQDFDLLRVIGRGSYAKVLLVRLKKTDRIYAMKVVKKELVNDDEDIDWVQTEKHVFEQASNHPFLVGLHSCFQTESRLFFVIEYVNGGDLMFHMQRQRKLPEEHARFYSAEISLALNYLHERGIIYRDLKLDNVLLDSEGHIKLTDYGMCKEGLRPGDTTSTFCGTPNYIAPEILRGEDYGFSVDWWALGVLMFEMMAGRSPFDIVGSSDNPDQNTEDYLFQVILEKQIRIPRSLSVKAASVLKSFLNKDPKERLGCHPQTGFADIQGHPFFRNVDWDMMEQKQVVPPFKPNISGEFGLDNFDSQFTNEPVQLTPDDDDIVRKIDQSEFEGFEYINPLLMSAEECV
p70S6K, sequence (P23443 whole entry): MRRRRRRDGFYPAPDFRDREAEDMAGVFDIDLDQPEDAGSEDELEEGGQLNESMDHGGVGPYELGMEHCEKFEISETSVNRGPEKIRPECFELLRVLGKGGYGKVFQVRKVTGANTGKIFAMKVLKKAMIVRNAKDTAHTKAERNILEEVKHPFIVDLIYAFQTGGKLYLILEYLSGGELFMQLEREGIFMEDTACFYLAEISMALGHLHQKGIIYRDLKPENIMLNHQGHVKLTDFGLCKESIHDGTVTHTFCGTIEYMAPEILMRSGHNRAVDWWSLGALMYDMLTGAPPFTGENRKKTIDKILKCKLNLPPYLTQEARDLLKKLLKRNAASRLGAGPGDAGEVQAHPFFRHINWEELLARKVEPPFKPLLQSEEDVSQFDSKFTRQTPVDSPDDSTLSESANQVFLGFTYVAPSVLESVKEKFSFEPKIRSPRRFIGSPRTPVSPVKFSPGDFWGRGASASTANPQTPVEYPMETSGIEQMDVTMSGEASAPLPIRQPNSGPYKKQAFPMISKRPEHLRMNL
SGK3, sequence (Q96BR1 whole entry): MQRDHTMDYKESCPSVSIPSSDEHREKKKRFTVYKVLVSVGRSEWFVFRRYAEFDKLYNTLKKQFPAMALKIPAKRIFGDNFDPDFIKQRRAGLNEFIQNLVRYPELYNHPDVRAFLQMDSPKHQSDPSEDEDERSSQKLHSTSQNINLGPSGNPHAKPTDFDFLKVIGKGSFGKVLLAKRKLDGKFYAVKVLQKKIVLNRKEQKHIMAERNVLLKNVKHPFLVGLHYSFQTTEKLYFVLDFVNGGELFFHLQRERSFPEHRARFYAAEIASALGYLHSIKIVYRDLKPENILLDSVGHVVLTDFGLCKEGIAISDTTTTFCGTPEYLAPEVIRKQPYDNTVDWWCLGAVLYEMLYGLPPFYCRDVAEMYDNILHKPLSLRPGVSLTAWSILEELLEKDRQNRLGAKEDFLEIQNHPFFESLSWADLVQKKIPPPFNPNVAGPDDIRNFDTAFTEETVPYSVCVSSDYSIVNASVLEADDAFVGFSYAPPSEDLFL
GCK, sequence (Q12851 whole entry): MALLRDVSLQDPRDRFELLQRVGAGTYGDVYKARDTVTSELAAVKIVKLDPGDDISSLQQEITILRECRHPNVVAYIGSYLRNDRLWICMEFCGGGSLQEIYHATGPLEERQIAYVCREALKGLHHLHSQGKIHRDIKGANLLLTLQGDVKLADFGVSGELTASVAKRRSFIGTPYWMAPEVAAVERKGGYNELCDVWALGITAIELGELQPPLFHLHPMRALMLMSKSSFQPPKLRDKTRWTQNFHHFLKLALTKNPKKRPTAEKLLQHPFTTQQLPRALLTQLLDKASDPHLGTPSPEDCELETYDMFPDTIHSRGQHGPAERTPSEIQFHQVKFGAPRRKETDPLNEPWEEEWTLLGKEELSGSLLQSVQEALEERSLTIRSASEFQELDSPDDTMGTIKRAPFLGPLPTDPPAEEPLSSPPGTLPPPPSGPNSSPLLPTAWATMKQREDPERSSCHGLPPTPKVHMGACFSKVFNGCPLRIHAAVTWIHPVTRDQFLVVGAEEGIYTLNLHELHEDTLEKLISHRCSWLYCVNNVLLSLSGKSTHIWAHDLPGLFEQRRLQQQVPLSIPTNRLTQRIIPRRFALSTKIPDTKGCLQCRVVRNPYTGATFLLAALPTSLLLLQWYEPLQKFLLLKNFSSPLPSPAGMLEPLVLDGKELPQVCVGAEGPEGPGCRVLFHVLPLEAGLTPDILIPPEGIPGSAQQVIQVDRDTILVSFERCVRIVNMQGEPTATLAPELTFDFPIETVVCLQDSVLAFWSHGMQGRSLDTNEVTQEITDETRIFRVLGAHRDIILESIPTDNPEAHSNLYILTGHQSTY

Q: What does the source list for `CN(C1CC1)S(=O)(=O)c1ccc(-c2cnc(N)c(-c3ccc4c(c3)CCNC4=O)c2)c(F)c1` [Compound I-28, 4-(6-amino-5-(1-oxo-1,2,3,4-tetrahydroisoquinolin-6-yl)pyridin-3-yl)-N-cyclopropyl-3-fluoro-N-methylbenzenesulfonamide]?
A: inhibition at 10 µM (p70S6K; read-out: % inhibition (range)): 0%; inhibition at 10 µM (p70S6K; read-out: inhibition (10 μM)): -22.7%; inhibition at 10 µM (PIP4K2C; read-out: % inhibition (range)): 0%; inhibition at 10 µM (PIP4K2C; read-out: inhibition (10 μM)): 11.8%; inhibition at 10 µM (JAK1 domain2; read-out: % inhibition (range)): 0%; inhibition at 10 µM (JAK1 domain2; read-out: inhibition (10 μM)): -33.7%; inhibition at 10 µM (Erk1; read-out: % inhibition (range)): 0%; inhibition at 10 µM (Erk1; read-out: inhibition (10 μM)): 11%; % inhibition (range) ([1]; 10 μM): 0.0%; inhibition (10 μM) [1]: 13.3%; inhibition (10 μM) (NuaK1): 66.7%; inhibition at 10 µM (NuaK1; read-out: % inhibition (range)): 50 to 75%; inhibition at 10 µM (NuaK1; read-out: inhibition (10 μM)): 55.6%; inhibition at 10 µM (RSKL1; read-out: % inhibition (range)): 0%; inhibition at 10 µM (RSKL1; read-out: inhibition (10 μM)): -26.1%; inhibition at 10 µM (KHS1; read-out: % inhibition (range)): 75 to 90%; inhibition at 10 µM (KHS1; read-out: inhibition (10 μM)): 75.6%; inhibition at 10 µM (CaMKK2; read-out: % inhibition (range)): 50 to 75%; inhibition at 10 µM (CaMKK2; read-out: inhibition (10 μM)): 57%; inhibition at 10 µM (AurB; read-out: % inhibition (range)): 0%; inhibition at 10 µM (AurB; read-out: inhibition (10 μM)): 32.7%; inhibition at 10 µM (MARK2; read-out: % inhibition (range)): 0%; inhibition at 10 µM (MARK2; read-out: inhibition (10 μM)): 4.6%; inhibition at 10 µM (NDR1; read-out: % inhibition (range)): 0%; inhibition at 10 µM (NDR1; read-out: inhibition (10 μM)): 24.6%; inhibition at 10 µM (SGK3; read-out: % inhibition (range)): 0%; inhibition at 10 µM (SGK3; read-out: inhibition (10 μM)): 9.9%; inhibition at 10 µM (TYK2 domain2; read-out: % inhibition (range)): 0%; inhibition at 10 µM (TYK2 domain2; read-out: inhibition (10 μM)): 3.8%; inhibition at 10 µM (PI4KB; read-out: % inhibition (range)): 0%; inhibition at 10 µM (PI4KB; read-out: inhibition (10 μM)): 16.7%; % inhibition (range) (KSR1, KSR2; 10 μM): 0.0%; inhibition (10 μM) (KSR1, KSR2): −14.5%; inhibition at 10 µM (p70S6Kb; read-out: % inhibition (range)): 0%; inhibition at 10 µM (p70S6Kb; read-out: inhibition (10 μM)): -14.4%; inhibition at 10 µM (MST2; read-out: % inhibition (range)): 75 to 90%; inhibition at 10 µM (MST2; read-out: inhibition (10 μM)): 89.3%; inhibition at 10 µM (CHK2; read-out: % inhibition (range)): 0%; inhibition at 10 µM (CHK2; read-out: inhibition (10 μM)): 6.8%; inhibition at 10 µM (GSK3A; read-out: % inhibition (range)): > 90%; inhibition at 10 µM (GSK3A; read-out: inhibition (10 μM)): 93.5%; inhibition at 10 µM (CDK7; read-out: % inhibition (range)): 0%; inhibition at 10 µM (CDK7; read-out: inhibition (10 μM)): 12.3%; % inhibition (range) (PITSLRE; 10 μM): 0.0%; inhibition (10 μM) (PITSLRE): −6.3%; inhibition at 10 µM (PRP4; read-out: % inhibition (range)): 0%; inhibition at 10 µM (PRP4; read-out: inhibition (10 μM)): 3.7%; inhibition at 10 µM (RSK2 domain2; read-out: % inhibition (range)): 0%; inhibition at 10 µM (RSK2 domain2; read-out: inhibition (10 μM)): -20%; % inhibition (range) (FYN, SRC, YES; 10 μM): 0.0%; inhibition (10 μM) (FYN, SRC, YES): 2.2%; % inhibition (range) (TAO1, TAO3; 10 μM): 75-90%; inhibition (10 μM) (TAO1, TAO3): 85.5%; inhibition at 10 µM (FRAP; read-out: % inhibition (range)): 35 to 50%; inhibition at 10 µM (FRAP; read-out: inhibition (10 μM)): 35.3%; % inhibition (range) (AurA, AurB, AurC; 10 μM): 0.0%; inhibition (10 μM) (AurA, AurB, AurC): 21.4%; inhibition at 10 µM (GCK; read-out: % inhibition (range)): 75 to 90%; inhibition at 10 µM (GCK; read-out: inhibition (10 μM)): 84.7%; inhibition at 10 µM (p38a): 0%; inhibition at 10 µM (ATR; read-out: % inhibition (range)): 0%; inhibition at 10 µM (ATR; read-out: inhibition (10 μM)): -37.5%; inhibition at 10 µM (PKCi; read-out: % inhibition (range)): 0%; inhibition at 10 µM (PKCi; read-out: inhibition (10 μM)): 12.7%; inhibition at 10 µM (TLK1; read-out: % inhibition (range)): 0%; inhibition at 10 µM (TLK1; read-out: inhibition (10 μM)): 1.8%; inhibition at 10 µM (LOK; read-out: % inhibition (range)): 75 to 90%; inhibition at 10 µM (LOK; read-out: inhibition (10 μM)): 85.5%
